Test results published in patent US9174998B2, “(6S,9aS)-N-benzyl-6-[(4-hydroxyphenyl)methyl]-4,7-dioxo-8-({6-[3-(piperazin-1-yl)azetidin-1-yl]pyridin-2-yl}methyl)-2-(prop-2-en-1-yl)-octahydro-1H-pyrazino[2,1-c][1,2,4]triazine-1-carboxamide compound” (Eisai R&D Management Co., Ltd., priority 2013, dated 2015).
In brackets after ≈: the same amount, converted by molar mass. Like-named read-outs stand apart in the source and are kept apart here.

Tests used:
[1] = PAMPA test (parallel artificial membrane permeability assay); format: in vitro ADME; conditions: phosphate buffer pH 6.8, about 200 μM, about 5 hours, room temperature, read-out: Test Example 4 membrane permeation coefficient Pe
Method: A test solution (see below) was stirred while shaking at room temperature for about 5 hours using a 96-well PAMPA plate (BD Biosciences) in which a lipid had been precoated onto a polyvinylidene fluoride (PVDF) film to evaluate the membrane permeation coefficient Pe (cm/s) of each compound dissolved in the test solution (concentration: about 200 μM) upon the transport of the compound from a donor side to an acceptor side through a lipid membrane. The Pe value was calculated in accordance with equations 1 and 2, and the concentration of the compound on the donor side and the acceptor side was measured by a HPLC-UV method. In 0.3 mL of the test solution on the donor side is contained about 1% (v/v) of DMSO, since 3 μL of a DMSO solution containing the compound at a concentration of 20 mM was added to the test solution.
Test solution: a phosphate buffer solution having a pH value of 6.8 (90 mM of phosphate, 48 mM of NaCl, 5.4 mM of KCl)
Conditions for stirring: a multishaker MS-300 (AS ONE Corporation), 350 rpm
[formula] CD(t): compound concentration in donor well at time t CA(t): compound concentration in acceptor well at time t VD: donor well volume (0.3 mL) VA: acceptor well volume (0.2 mL) A: filter area (0.3 cm^2)

Wnt signal = experiment: Detection of Wnt signal (TOPglow luciferase reporter, LiCl-stimulated); format: cell-based; conditions: Homo sapiens; HEK293 clone carrying pNeo-TOP reporter; LiCl stimulation; luciferase luminescence; read-out: Test Example 1 IC50 (concentration required for inhibiting the Wnt signal activity by 50%)
Method: pcDNA3.1(+) (invitrogen) was cleaved with restriction enzymes BglII and NotI, and an adapter BEHKS having a sequence shown below (containing restriction enzyme sites BglII, EcoRI, HindIII, KpnI, SacI and NotI) was inserted thereinto, thereby producing a plasmid pNeo-HKS.
Subsequently, a fragment having a length of about 2700 bp (containing a Wnt-responsive sequence and a luciferase gene), which was prepared by cleaving from a TOPglow plasmid contained in a TOPglow/FOPglow TCF Reporter Kit (upstate Catalog#17-366) with restriction enzymes HindIII and KpnI, was inserted between HindIII and KpnI in pNeo-HKS, thereby producing a plasmid pNeo-TOP. The plasmid pNeo-TOP was introduced into human fetus-derived renal cell strain HEK293, then a compound was selected using G418, and then a cell clone strain was established by a limiting dilution method. The cell clone strain was subjected to a Wnt signal detection test.
The cell clone strain was subcultured in a D-MEM glucose-rich culture medium (Wako Pure Chemical Industries, Ltd.) containing 10% FBS, and cells in a growth phase were used in the test. Cells were collected using trypsin-EDTA, the number of the cells was counted, and then the cells were suspended in a D-MEM glucose-rich culture medium containing 10% FBS so that the number of cells became 2×10^5 cells/mL. The cell suspension was added to a 96-well cell culture plate (Greiner Bio-One Co., Ltd., product number: 655083) in an amount of 0.1 mL/well and then cultured overnight in a 5% CO2 incubator (37° C.). After the culturing, a substance to be tested, which was dissolved in DMSO, was diluted with a D-MEM glucose-rich culture medium containing 10% of FBS and 80 mM of LiCl to produce a sample solution. The sample solution (0.1 mL) was added to each well and then cultured in a 5% CO2 incubator (37° C.) […]. Six hours after the addition of the sample solution, a supernatant was removed from each well, and then 50 μL of Bright-Glo™ Luciferase substrate (Promega, product number: E2620) was added thereto. The plate was put on a plate mixer for several seconds, and then the emission of light from each well was measured using a EnVision™ Multilabel plate reader (PerkinElmer Co., Ltd.). The Wnt signal activation rate (%) of each well was determined, and a concentration (IC50) which is required for inhibiting the Wnt signal activity of a substance of interest by 50% was calculated, wherein the luminosity of a well to which a sample solution was not added and LiCl was added was defined as a 100% Wnt signal activity and the luminosity of a well to which either of a sample solution or LiCl was not added was defined as a 0% Wnt signal activity.

[2] = Evaluation of solubility (DMSO stock into PBS, HPLC-UV); format: physicochemical; conditions: Dulbecco's phosphate-buffered saline pH 7, room temperature, about 15 minutes shaking, values greater than 200 μM regarded as 200 μM, read-out: Test Example 3 solubility
Method: To 0.25 mL of a test solution a mentioned below was added 2.5 μL of a DMSO solution having a compound concentration of 20 mM. The resultant solution was shaken at room temperature for about 15 minutes (the conditions for the shaking are mentioned below). Subsequently, a supernatant was collected by a suction filtration under a reduced pressure. A DMSO solution having a compound concentration of 200 μM was used as a standard solution, and the concentration of a compound in a filtrate which was quantified by a HPLC-UV method was employed as a solubility (rounded off to the whole number). In this evaluation, since a value 200 μM became the upper limit operationally, all of quantification values greater than 200 μM were regarded as 200 μM.
Test solution: GIBCO (registered trade name) Dulbecco's phosphate-buffered saline (pH 7, Life Technologies Corporation)
Conditions for shaking: a microplate shaker N-704 (Nissinrika Corporation), speed 6

[3] = Evaluation of metabolic stability; format: in vitro ADME, human; conditions: 0.2 mg/mL HLM, 0.1 μM test substance, 15 minutes at 37° C., with vs without NADPH production
Method: A test substance was dissolved in DMSO so that the concentration of the resultant solution became 20 mM, and the solution was diluted with DMSO so that the concentration of the resultant solution became 1 mM. The metabolic stability of the test substance was evaluated using a human liver microsome (HLM) in which human liver was pooled. An assay buffer solution contained 0.2 mg/mL of HLM, a 0.1 M of phosphate potassium buffer solution (pH 7.4), 0.1 mM of EDTA, 0.33 mM of NADP+, 8 mM of glucose-6-phosphate, 0.1 U/mL of glucose-6-phosphate dehydrogenase, 6 mM of MgCl2, 0.1 μM of a test substance (final concentration in DMSO: 0.01%) in 0.15 mL of the final incubation volume. Fifteen minutes after the initiation of the reaction at 37° C., 0.15 mL of a acetonitrile/methanol mixed solution (7:3, by volume) was added to the solution to terminate the reaction. After centrifugation, the resultant supernatant was analyzed by LC-MSMS, peak areas were compared under the presence or absence of the production of NADPH, and the residual ratio of the test substance was calculated.

[4] = aqueous buffer, kinetic from dmso stock

SMILES	Papp [1] [×10⁻⁶ cm/s]	IC50 (Wnt signal) [nM]	solubility [2, 4] [µM]	Test Example 2 residual ratio of the test substance [3] [%]	solubility [2] [µM]
C=CCN1CC(=O)N2[C@@H](Cc3ccc(O)cc3)C(=O)N(Cc3ccc(F)c(N4CC(N5CCN(C)CC5)C4)n3)C[C@@H]2N1C(=O)NCc1ccccc1 [Example 8, (6S,9aS)-N-Benzyl-8-((5-fluoro-6-(3-(4-methylpiperazin-1-yl)azetidin-1-yl)pyridin-2-yl)methyl)-6-((4-hydroxyphenyl)methyl)-4,7-dioxo-2-(prop-2-en-1-yl)-octahydro-1H-pyrazino[2,1-c][1,2,4]triazine-1-carboxamide]	2.3	200	195 (≈ 139 µg/mL)	40	–
C=CCN1CC(=O)N2[C@@H](Cc3ccc(O)cc3)C(=O)N(Cc3cccc(N4CC(N5CCN(C(C)C)CC5)C4)n3)C[C@@H]2N1C(=O)NCc1ccccc1 [Example 9, (6S,9aS)-N-Benzyl-6-((4-hydroxyphenyl)methyl)-4,7-dioxo-2-(prop-2-en-1-yl)-8-((6-(3-(4-(propan-2-yl)piperazin-1-yl)azetidin-1-yl)pyridin-2-yl)methyl)-octahydro-1H-pyrazino[2,1-c][1,2,4]triazine-1-carboxamide]	1.38	150	194 (≈ 140 µg/mL)	34	–
C=CCN1CC(=O)N2[C@@H](Cc3ccc(O)cc3F)C(=O)N(Cc3ccc(F)c(N4CC(N5CCN(C)CC5)C4)n3)C[C@@H]2N1C(=O)NCc1ccccc1 [Example 10, (6S,9aS)-N-Benzyl-6-((2-fluoro-4-hydroxyphenyl)methyl)-8-((5-fluoro-6-(3-(4-methylpiperazin-1-yl)azetidin-1-yl)pyridin-2-yl)methyl)-4,7-dioxo-2-(prop-2-en-1-yl)-octahydro-1H-pyrazino[2,1-c][1,2,4]triazine-1-carboxamide]	3.75	44	184 (≈ 134 µg/mL)	28	–
C=CCN1CC(=O)N2[C@@H](Cc3ccc(O)cc3F)C(=O)N(Cc3cccc(N4CC(N5CCN(C(C)C)CC5)C4)n3)C[C@@H]2N1C(=O)NCc1ccccc1 [Example 11, (6S,9aS)-N-Benzyl-6-((2-fluoro-4-hydroxyphenyl)methyl)-4,7-dioxo-2-(prop-2-en-1-yl)-8-((6-(3-(4-(propan-2-yl)piperazin-1-yl)azetidin-1-yl)pyridin-2-yl)methyl)-octahydro-1H-pyrazino[2,1-c][1,2,4]triazine-1-carboxamide]	2.55	39	192 (≈ 142 µg/mL)	26	–
C=CCN1CC(=O)N2[C@@H](Cc3c(F)cc(O)cc3F)C(=O)N(Cc3cccc(N4CC(N5CCN(C(C)C)CC5)C4)n3)C[C@@H]2N1C(=O)NCc1ccccc1 [Example 12, (6S,9aS)-N-Benzyl-6-((2,6-difluoro-4-hydroxyphenyl)methyl)-4,7-dioxo-2-(prop-2-en-1-yl)-8-((6-(3-(4-(propan-2-yl)piperazin-1-yl)azetidin-1-yl)pyridin-2-yl)methyl)-octahydro-1H-pyrazino[2,1-c][1,2,4]triazine-1-carboxamide]	0.87	96	188 (≈ 142 µg/mL)	38	–

Now from value to compound:

Papp [1] [×10⁻⁶ cm/s]	IC50 (Wnt signal) [nM]	solubility [2, 4] [µM]	Test Example 2 residual ratio of the test substance [3] [%]	solubility [2] [µM]	SMILES
0.52	140	–	56	200 (≈ 149 µg/mL)	C=CCN1CC(=O)N2[C@@H](Cc3c(F)cc(O)cc3F)C(=O)N(Cc3cccc(N4CC(N5CCN(CC)CC5)C4)n3)C[C@@H]2N1C(=O)NCc1ccccc1 [Example 13, (6S,9aS)-N-Benzyl-6-((2,6-difluoro-4-hydroxyphenyl)methyl)-8-((6-(3-(4-ethylpiperazin-1-yl)azetidin-1-yl)pyridin-2-yl)methyl)-4,7-dioxo-2-(prop-2-en-1-yl)-octahydro-1H-pyrazino[2,1-c][1,2,4]triazine-1-carboxamide]
0.39	270	197 (≈ 144 µg/mL)	69	–	C=CCN1CC(=O)N2[C@@H](Cc3c(F)cc(O)cc3F)C(=O)N(Cc3cccc(N4CC(N5CCN(C)CC5)C4)n3)C[C@@H]2N1C(=O)NCc1ccccc1 [Example 14, (6S,9aS)-N-Benzyl-6-((2,6-difluoro-4-hydroxyphenyl)methyl)-8-((6-(3-(4-methylpiperazin-1-yl)azetidin-1-yl)pyridin-2-yl)methyl)-4,7-dioxo-2-(prop-2-en-1-yl)-octahydro-1H-pyrazino[2,1-c][1,2,4]triazine-1-carboxamide]
2.38	75	195 (≈ 142 µg/mL)	45	–	C=CCN1CC(=O)N2[C@@H](Cc3ccc(O)cc3F)C(=O)N(Cc3cccc(N4CC(N5CCN(C)C[C@@H]5C)C4)n3)C[C@@H]2N1C(=O)NCc1ccccc1 [Example 15, (6S,9aS)-N-Benzyl-8-((6-(3-((2S)-2,4-dimethylpiperazin-1-yl)azetidin-1-yl)pyridin-2-yl)methyl)-6-((2-fluoro-4-hydroxyphenyl)methyl)-4,7-dioxo-2-(prop-2-en-1-yl)-octahydro-1H-pyrazino[2,1-c][1,2,4]triazine-1-carboxamide]
0.51	220	197 (≈ 147 µg/mL)	63	–	C=CCN1CC(=O)N2[C@@H](Cc3c(F)cc(O)cc3F)C(=O)N(Cc3cccc(N4CC(N5CCN(C)[C@@H](C)C5)C4)n3)C[C@@H]2N1C(=O)NCc1ccccc1 [Example 16, (6S,9aS)-N-Benzyl-6-((2,6-difluoro-4-hydroxyphenyl)methyl)-8-((6-(3-((3S)-3,4-dimethylpiperazin-1-yl)azetidin-1-yl)pyridin-2-yl)methyl)-4,7-dioxo-2-(prop-2-en-1-yl)-octahydro-1H-pyrazino[2,1-c][1,2,4]triazine-1-carboxamide]
